Reference: patent publication US10350170B2, “Solid preparation” (Takeda Pharmaceutical Company Limited, priority 2015, dated 2019)

Test: Stability of compound A alone in a solid state to temperature, humidity
Type: physicochemical

CONC(=O)Nc1ccc(-c2sc3c(c2CN(C)C)c(=O)n(-c2ccc(OC)nn2)c(=O)n3Cc2c(F)cccc2F)cc1 [compound A, N-(4-(1-(2,6-difluorobenzyl)-5-((dimethylamino)methyl)-3-(6-methoxy-3-pyridazinyl)-2,4-dioxo-1,2,3,4-tetrahydrothieno[2,3-d]pyrimidin-6-yl)phenyl)-N′-methoxyurea]
stability to temperature, humidity and the like: stable
